Values of other authors as cited in patent US5006329A, “Radioactive tagged compounds and method for the treatment of metastatic bone cancer” (priority 1989, dated 1991).

Experiments:
bone cancer = settings: HMDP with Samarium-153 label
bone marrow = settings: after treatment of a patient; reported
[1] = for high energy beta emissions: e.g.
malignant bone tissue = settings: tumor vs normal bone
metastatic bone cancer = settings: over 100 patients

Molecule	safety with respect to healthy bone marrow tissue (bone cancer)	effectiveness in treating the malignancy (bone cancer; preliminary results)	blood profile changes (bone marrow)	half-life (radioactive) [1]	high energy beta emissions [1]	accretion rate of tumor compared with normal bone (malignant bone tissue)	degree of malignancy (metastatic bone cancer)	dose of radioactivity to bone marrow (metastatic bone cancer)	pain (metastatic bone cancer)	effectiveness in treating the cancer (metastatic bone cancer; Dr. Ralph Robinson)
[153Sm] [Samarium-153]	indeterminate	promising	blood profile changes occur	two	600-700 KeV					
O=P([O-])([O-])CP(=O)(O)O.[Na+].[Na+] [MDP, disodium methylene-diphosphonate]						substantially higher than normal bone				
Strontium-89			blood profile changes occur		800 KeV		reduced	unacceptably high	reduced	acceptable
